Laboratory results: US20230312561A1, “SOLID FORMS OF (Z)-METHYL 3-(((4-(N-METHYL-2-(4-METHYLPIPERAZIN-1-YL)ACETAMIDO)PHENYL)AMINO)(PHENYL)METHYLENE)-2-OXO-2,3-DIHYDRO-1H-PYRROLO[2,3-B]PYRIDINE-6-CARBOXYLATE AND SALTS THEREOF” (Angion Biomedica Corp., priority 2020, published 2023)

How the values were obtained:
[1] = Dynamic Vapor Sorption (DVS) analysis with XRPD after equilibration; assay type: physicochemical; settings: for moisture/water content on initial equilibration at 50% RH (DVS): beginning of analysis; for reversibility of water uptake (DVS): as relative humidity decreased
Method: Sorption isotherms were obtained using a Hiden Isochema moisture sorption analyzer (model IGAsorp), controlled by IGAsorp Systems Software V6.50.48. The sample was maintained at a constant temperature (25° C.) by the instrument controls. The humidity was controlled by mixing streams of dry and wet nitrogen, with a total flow of 250 mL·min^−1. The instrument was verified for relative humidity content by measuring three calibrated Rotronic salt solutions (10%, 50%, 88%). The weight change of the sample was monitored as a function of humidity by a microbalance (accuracy+/−0.005 mg). A defined amount of sample was placed in a tared mesh stainless steel basket under ambient conditions. A full experimental cycle typically consisted of three scans (sorption, desorption and sorption) at a constant temperature (25° C.) and 10% RH intervals over a 0-90% range (60 minutes for each humidity level). […]
This water content decreased as relative humidity decreased in the first desorption cycle.
The solid absorbed 3.39% water over the humidity range. […] The profile was similar to that of Form C in Example 7.2.

[2] = Drying studies of Compound 1 Hydrochloride (XRPD, TGA); assay type: physicochemical
Method: Compound 1 Hydrochloride Form A was then subjected to drying under various conditions.
Drying studies of Compound 1 Hydrochloride Form A (Type 1 Lot) were performed.
Variability in the drying profiles of different lots of Compound 1 Hydrochloride were noted, particularly with regards to the transition between Form A and Form C. The variable behavior appeared to depend upon the nature of the input Form A batch (e.g., how it was generated and then conditioned, if at all, prior to drying, and/or if excess hydrochloric acid was present).
Concentrated HCl (154 μL, 1 eqiuv) was added which clarified the suspension to a deep orange solution. The mixture was equilibrated for 30 minutes before cooling gradually to room temperature. A thin yellow suspension resulted. The solvent volume was reduced by 50% which thickened the suspension. The suspension was matured overnight, following which the solid was filtered to isolate the solids. The solid was air dried for ˜30 minutes giving a yellow solid (damp mass: 1.24 g; pH measured at 5.0). The XRPD pattern of the damp solid corresponded with Compound 1 Hydrochloride Form H. Analysis of the damp solid by DSC and TGA indicated a water content of 8.2%, which was fairly labile up ˜75° C.
Compound 1 Hydrochloride Form H was then subjected to a drying study under various conditions.
The solids were further subjected to prolonged drying.

[3] = Solid state stability under humid conditions (40° C./75% RH and 25° C./60% RH, two weeks); assay type: physicochemical
Method: Stability of Compound 1 Hydrochloride Forms A, B, C, and D was evaluated under humid conditions. Samples of Forms A, B, C, and D were stored at 40° C./75% RH and 25° C./60% RH for a period of two weeks (loosely capped glass vials with approx. 200 mg solid). Solids were then re-analyzed using methods described herein. A summary of the results is provided in Table 12 (after storage at 25° C./60% RH) and Table 13 (after storage at 40° C./75% RH).

[4] = Form stability on standing on bench or at 40° C./75% RH (XRPD); assay type: physicochemical
Method: Two samples of the solid were stored under glass with loose fitting lids on a bench and at 40° C./75% RH for a period of 5 days and re-analyzed by XRPD.
In an additional experiment, a sample of Form F was left to stand on a bench in a loosened vial for 48 hours.

[5] = Aqueous solubility of salt forms (25° C., 1, 4, 24 h); settings: deionized water; for XRPD: isolated solids
Method: Aqueous solubility of certain salt forms was assessed. Each solid (100 mg) was charged into a crystallization tube. Deionized water (1 mL) was added to each tube to give a suspension. The mixtures were equilibrated at 25° C. for 24 hours with sampling after 1 and 4 hours' equilibration. Solids were isolated and XRPD analysis obtained.

[6] = Dry in vacuo at 25° C., T = 4 h
[7] = Dry in vacuo at 25° C., T = 24 h
[8] = Dry in vacuo at 25° C., T = 48 h
[9] = Dry in vacuo at 25° C., T = 120 h
[10] = Dry in vacuo at 45° C., T = 4 h
[11] = Dry in vacuo at 45° C., T = 24 h
[12] = Dry in vacuo at 45° C., T = 120 h
[13] = Dry in vacuo at 70° C., T = 4 h
[14] = Dry in vacuo at 70° C., T = 24 h
[15] = Dry in vacuo at 70° C., T = 120 h
[16] = Dry in vacuo at 25° C., T = 96 h
[17] = Dry in vacuo at 45° C., T = 96 h
[18] = Dry in vacuo at 70° C., T = 96 h
[19] = Form C prepared from Form A, Type 1 Lot
[20] = Form C prepared from Form A, Type 2 Lot
[21] = under glass with loose fitting lid, 5 days

COC(=O)c1ccc2c(c1)NC(=O)/C2=C(\Nc1ccc(N(C)C(=O)CN2CCN(C)CC2)cc1)c1ccccc1.Cl [Compound 1 Hydrochloride Form A (Type 2 Lot)]
XRPD analysis following equilibration at 0% RH ([1]; 0% RH): mixture of Form A and Form C
moisture/water content on initial equilibration at 50% RH (DVS) [1]: 6.39%
XRPD analysis following equilibration at 90% RH ([1]; 90% RH): predominantly Form A
uptake of water following initial equilibration at 50% RH during first desorption cycle (DVS) ([1]; first desorption cycle): −7%
water absorbed over the humidity range, first sorption cycle (DVS) ([1]; first sorption cycle): 8.66%
TGA (%) [2, 6]: 9.96%
TGA (%) [2, 7]: 7.09%
XRPD [2, 7]: Form A
TGA (%) [2, 8]: 6.61%
XRPD [2, 8]: Form A
TGA (%) [2, 9]: 3.45%
TGA (%) [2, 10]: 9.89%
TGA (%) [2, 11]: 6.93%
TGA (%) ([2]; Dry in vacuo at 45° C., T = 48 h): 6.63%
TGA (%) [2, 12]: 2.27%
TGA (%) [2, 13]: 8.93%
TGA (%) [2, 14]: 6.49%
TGA (%) ([2]; Dry in vacuo at 70° C., T = 48 h): 6.68%
TGA (%) [2, 15]: 2.17%
TGA (%) ([2]; T = 0, before drying): 14.83%
level of hydration after extended drying ([2]; summary of drying studies, Table 10): reduced to 2-3%
XRPD After Storage ([3]; 25° C./60% RH): Form A/C
XRPD After Storage ([3]; 40° C./75% RH): amorphous

COC(=O)c1ccc2c(c1)NC(=O)C2=C(Nc1ccc(N(C)C(=O)CN2CCN(C)CC2)cc1)c1ccccc1.Cl [Compound 1 Hydrochloride Form F]
behaviour on prolonged drying ([2]; all drying temperatures (25, 45, 70° C.)): robust toward further changes
form after standing on a bench in a loosened vial (XRPD and TGA) ([4]; 48 hours): fully converted into Form H

COC(=O)c1ccc2c(c1)NC(=O)/C2=C(\Nc1ccc(N(C)C(=O)CN2CCN(C)CC2)cc1)c1ccccc1.Cl [HCl (Form A, Type 2 Lot)]
Solubility ([5]; t = 1 h): 46.11 mg/mL
pH ([5]; t = 1 h): 5.22
XRPD ([5]; t = 1 h): Form A
Solubility ([5]; t = 4 h): 43.78 mg/mL
XRPD ([5]; t = 4 h): Form A
Solubility ([5]; t = 24 h): 40.58 mg/mL
pH ([5]; t = 24 h): 5.25
XRPD ([5]; t = 24 h): Form A

COC(=O)c1ccc2c(c1)NC(=O)/C2=C(\Nc1ccc(N(C)C(=O)CN2CCN(C)CC2)cc1)c1ccccc1.Cl [Compound 1 Hydrochloride Form H]
TGA (%) [2, 6]: 0%
XRPD [2, 6]: Form F
XRPD [2, 7]: Form F
TGA (%) [2, 16]: 0%
XRPD [2, 16]: Form F
XRPD [2, 9]: Form F
TGA (%) [2, 10]: 0%
XRPD [2, 10]: Form F
XRPD [2, 11]: Form F
TGA (%) [2, 17]: 0%
XRPD [2, 17]: Form F
XRPD [2, 12]: Form F
TGA (%) [2, 13]: 0%
XRPD [2, 13]: Form F
XRPD [2, 14]: Form F
TGA (%) [2, 18]: 0%
XRPD [2, 18]: Form F
XRPD [2, 15]: Form F
TGA (%) ([2]; T = 0, before drying): 8.24%
XRPD ([2]; T = 0, before drying): Form H

Maleate
Solubility ([5]; t = 1 h): 12.50 mg/mL
pH ([5]; t = 1 h): 6.35
Solubility ([5]; t = 4 h): 12.39 mg/mL
Solubility ([5]; t = 24 h): 9.45 mg/mL
pH ([5]; t = 24 h): 6.40

COC(=O)c1ccc2c(c1)NC(=O)/C2=C(\Nc1ccc(N(C)C(=O)CN2CCN(C)CC2)cc1)c1ccccc1.Cl [Compound 1 Hydrochloride Form C]
XRPD analysis following equilibration at 0% RH ([1]; 0% RH): remained Form C
XRPD analysis following equilibration at 90% RH ([1]; 90% RH): Form A
water absorbed above 70% RH (DVS) [1, 19]: 8.38%
water absorbed up to 70% RH, initial sorption step (DVS) [1, 19]: 1.44%
water content reached over the humidity range on second sorption cycle (DVS) [1, 19]: 10%
XRPD analysis following equilibration at 0% RH [1, 20]: remained Form C
XRPD analysis following equilibration at 90% RH [1, 20]: remained Form C
water absorbed over the humidity range (DVS) [1, 20]: 3.39%
water absorbed up to 80% RH (DVS) [1, 20]: 1.55%
reversibility of water uptake (DVS) [1]: reversible
form after equilibration in water (damp solid, XRPD) ([2]; equilibrated in water for 48 hours): readily converted to Form A
TGA After Storage: further loss above/post 200° C. ([3]; 25° C./60% RH): 0.98% post 200 °C
XRPD After Storage ([3]; 25° C./60% RH): Form C
TGA After Storage: further loss above/post 200° C. ([3]; 40° C./75% RH): 1.0% post 200 °C
XRPD After Storage ([3]; 40° C./75% RH): Form C
XRPD after storage at 40° C./75% RH [4, 21]: no change from Form C
XRPD after storage on a bench [4, 21]: no change from Form C

Tosylate
Solubility ([5]; t = 1 h): 2.07 mg/mL
pH ([5]; t = 1 h): 6.46
Solubility ([5]; t = 4 h): 2.02 mg/mL
Solubility ([5]; t = 24 h): 2.39 mg/mL
pH ([5]; t = 24 h): 6.66

COC(=O)c1ccc2c(c1)NC(=O)/C2=C(\Nc1ccc(N(C)C(=O)CN2CCN(C)CC2)cc1)c1ccccc1.Cl [Compound 1 Hydrochloride Form B]
XRPD analysis following equilibration at 0% RH ([1]; 0% RH): Form F
moisture/water content on initial equilibration at 50% RH (DVS) [1]: 4.2%
XRPD analysis following equilibration at 90% RH ([1]; 90% RH): Form H
level of water reached in initial sorption step after 70% RH (DVS) ([1]; above 70% RH): 17.3%
reversibility of water uptake (DVS) [1]: reversible
loss of water on the initial desorption step (DVS) ([1]; initial desorption step): ~1.5%
water content after the second desorption step (DVS) ([1]; second desorption step): 1.1%
TGA After Storage: further loss above/post 200° C. ([3]; 25° C./60% RH): 1.41% post 200 °C
TGA After Storage: weight reduction to 60° C. ([3]; 25° C./60% RH): Weight reduction of 1.69% to 60 °C
XRPD After Storage ([3]; 25° C./60% RH): Form B
TGA After Storage: further loss above/post 200° C. ([3]; 40° C./75% RH): followed by further loss of 1.4%
TGA After Storage: weight reduction to 60° C. ([3]; 40° C./75% RH): Weight reduction of 1.0% to 60 °C
XRPD After Storage ([3]; 40° C./75% RH): Form H

COC(=O)c1ccc2c(c1)NC(=O)/C2=C(\Nc1ccc(N(C)C(=O)CN2CCN(C)CC2)cc1)c1ccccc1.Cl [HCl (Form A, Type 1 Lot)]
Solubility ([5]; t = 1 h): 70.37 mg/mL
pH ([5]; t = 1 h): 3.34
Solubility ([5]; t = 4 h): 50.54 mg/mL
Solubility ([5]; t = 24 h): 52.88 mg/mL
pH ([5]; t = 24 h): 3.28

COC(=O)c1ccc2c(c1)NC(=O)/C2=C(\Nc1ccc(N(C)C(=O)CN2CCN(C)CC2)cc1)c1ccccc1.Cl [Compound 1 Hydrochloride Form D]
TGA After Storage: further loss above/post 200° C. ([3]; 25° C./60% RH): 1.51% post 200 °C
XRPD After Storage ([3]; 25° C./60% RH): Form D
TGA After Storage: further loss above/post 200° C. ([3]; 40° C./75% RH): 1.68% post 200 °C
XRPD After Storage ([3]; 40° C./75% RH): Form D
